# Assay results from patent publication US20060166869A1, “Novel use of lipopeptide preparations” (priority 2002, published 2006).
# Like-named read-outs stand apart in the source and are kept apart here.
# How the values were obtained:
# [1] = molecular target: T1, Bordetella pertussis tilted peptide (Bordetella pertussis, UniProt P12255); format: biochemical; details: charged LUV, Tris NaCl buffer pH 7.4, Bordetella pertussis tilted peptide 2.42 μM (FIG. 8)
# T1 construct: purchased EPYTOP (Nimes, France)
# Text: A number of different systems have been developed to assay peptide membrane fusion activity. Large unilamellar vesicles (LUV) are appropriate model for biological membrane fusion. Their curvature and their stability mimic suitably the cell membrane. Several different techniques for detecting and quantifying vesicle fusion are in common use. These include fluorescence assays that monitor fusion-induced lipid mixing between the two lipid bilayers of the membranes by observing the increase of fluorescence of a probe included in a part of vesicles in mixture. The dilution of the probe by fusion of the two bilayers from the two categories of vesicles causes a decrease of the self-quenching phenomenon leading to an increase of the fluorescence intensity.
# Two sets of LUV are prepared: LUV with fluorescent probe (labelled LUV) and free probe LUV (unlabelled LUV). The probe used is the octadecyl rhodamine chloride (R18) (Molecular probes, Eugene, Oreg.).
# The first step is the preparation of large multilamellar vesicles. For this, a mixing of different lipids is operated in a round bottomed Büchi flask. […]
# Vesicles fusion is determined by measuring the fluorescence intensity change resulting from the fluorescence of the R18 probe. Fluorescence is monitored using fluorimeter LS-50B Perkin-Elmer (Norwalk, Conn. USA). […]
# SIV tilted peptide = molecular target: T2, SIV tilted peptide (Simian immunodeficiency virus, UniProt P05885); format: biochemical; details: for concentration at which inhibition is complete: Tris NaCl buffer pH 7.4, SIV tilted peptide 0.966 μM (FIG. 6); for inhibition of LUV fusion: Tris NaCl buffer pH 7.4, SIV tilted peptide 0.966 μM; for concentration at which complete (or nearly complete) inhibition of fusion is reached: Tris NaCl buffer pH 8.0, SIV tilted peptide 0.966 μM (FIG. 2)
# T2 construct: SIV; 12; 528-539; GVFVLGFLGFLA; purchased SYNT:EM (Nimes, France)
# [2] = uncharged LUV, Tris buffer without NaCl pH 8.0, SIV tilted peptide 0.966 μM (FIG. 5)
Substance,concentration at which the fusogenic effect is inhibited completely [1],concentration at which inhibition is complete (SIV tilted peptide; charged LUV),concentration at which complete (or nearly complete) inhibition of fusion is reached (SIV tilted peptide; charged LUV),further results
cyclic fengycin A with a β-hydroxyled fatty acid chain containing 16 carbon atoms [FAC16],~1.61 µM,~2.4 µM,~1 µM,"inhibition of LUV fusion (SIV tilted peptide; charged LUV, agent at 0.8 μM (FIG. 6)): 90%"
cyclic surfactin with a linear β-hydroxyled fatty acid chain containing 14 carbon atoms [SC14],,,~2.4 µM,
cyclic surfactin with an iso-branched β-hydroxyled fatty acid chain containing 13 carbon atoms [SC13],,,> 4.8 µM,
cyclic surfactin with an iso-branched β-hydroxyled fatty acid chain containing 15 carbon atoms [SC15],~4.8 µM,~2.4 µM,~2.4 µM,"concentration at which fusion is completely inhibited (SIV tilted peptide; uncharged LUV, Tris NaCl buffer pH 8.0, SIV tilted peptide 0.966 μM (FIG. 4)): ~3.2 µM; antifusogenic activity in absence of NaCl compared with Tris NaCl buffer (SIV tilted peptide; [2]): slightly improved; concentration at which complete inhibition is reached (SIV tilted peptide; [2]): ~2 µM"
"linear surfactin, with an linear β-hydroxylated fatty acid chain containing 14 carbon atoms and with a linear peptide part [LSC14]",,,,"inhibition of LUV fusion (SIV tilted peptide; charged LUV, agent at concentration near 2 μM (FIG. 6)): 60%"
lysophosphatidylcholine [reference compound],,,,"effect on the fusion percentage (SIV tilted peptide; charged LUV, Tris NaCl buffer pH 8.0, agent at concentrations below 1 μM (FIG. 2)): no effect at all; antifusogenic activity (SIV tilted peptide; charged LUV, Tris NaCl buffer pH 8.0, agent at concentrations between 1 and 2 μM (FIG. 2)): < 50%"
